# Experimental data taken from patent publication EP1149079B1, “TETRAHYDRO ISOQUINO LINEALKANOL DERIVATIVES AND PHARMACEUTICAL COMPOSITIONS CONTAINING SAME” (SK Corporation, priority 1999, dated 2000).
# Tests used:
# [1] = test system: mice; assay: Head-twitch test (5-HTP-induced head-twitch response); assay type: in vivo; conditions: oral, head twitches counted in a 2-minute period 30 min after 5-HTP 100 mg/kg ip, versus vehicle control
# Procedure: The head-twitch response of mice is initiated by a variety of 5-HT mimetic drugs. The test was conducted in a manner similar to the procedure described by Heal, D.J., Philpot, J, O'Shaughnessy, K.M. and Davies, C.L.: The influence of central noradrenergic function on 5-HT-mediated head-twitch responses in mice: Possible implications for the actions of antidepressant drugs. Psychopharmacology 89: 414-420, 1986,
# The head-twitch consisted of a characteristic rotation of the head, neck and shoulders of the mice. The test drug or vehicle was given by oral gavage. Thirty minutes later all animals were pretreated with carbidopa (25 mg/kg ip). Fifteen minutes following carbidopa administration, the mice were injected with 100 mg/kg ip of L-5-hydroxytryptophan (5-HTP). The animals were then left for 30 minutes before measurement of the head-twitch response in the following 2-minute period. For calculation of percent (%) response increase, the difference in drug head twitch number versus the control vehicle head twitch number is divided by the control head twitch and multiplied by 100.
# [2] = test system: Rats; assay: Behavior Despair (Forced Swimming) test, rats dosed po; assay type: in vivo; conditions: reduction in immobility time versus vehicle; dose 60 mg/kg (po); one hour after dosing; 4-minute test period
# Procedure: (§1) Behavior Despair (Forced Swimming) test, a well known pharmacological screening method for depression, was conducted similar to the test described by Porsolt, R.D., Bertin, A. and Jalfre, M.: Behavior despair in mice: A preliminary screening test for antidepressants. Arch. Int. Pharmacodyn. Ther. 229: 327-336, 1977.
# Rats were pre-swam for 10 minute the day before the test in 4000 mL glass cylinders containing water at 25°C. On the following day, rats were dosed orally (po) with either test compound or vehicle. One hour later each animal was placed in the glass cylinder and, following a 2-minute pretest, immobility was recorded for a 4-minute test period. For calculation of percent (%) reduction in immobility time, the difference in immobility time for control vehicle versus the drug is divided by the immobility time of the control vehicle and multiplied by 100.
# [3] = molecular target: T1, MAO-A (Rattus norvegicus, UniProt P21396); assay: MAO-A inhibiting activity in vitro, radioisotopic assay with [14C] serotonin; assay type: biochemical; conditions: Rat liver mitochondrial membranes, 300 nM deprenyl to block MAO-B, preincubation 60 minutes at 37°C
# T1 construct: Rat liver mitochondrial membranes as the source of the enzyme; from tissue; host or cells: rat liver mitochondrial membranes
# T1 sequence (P21396 1-526): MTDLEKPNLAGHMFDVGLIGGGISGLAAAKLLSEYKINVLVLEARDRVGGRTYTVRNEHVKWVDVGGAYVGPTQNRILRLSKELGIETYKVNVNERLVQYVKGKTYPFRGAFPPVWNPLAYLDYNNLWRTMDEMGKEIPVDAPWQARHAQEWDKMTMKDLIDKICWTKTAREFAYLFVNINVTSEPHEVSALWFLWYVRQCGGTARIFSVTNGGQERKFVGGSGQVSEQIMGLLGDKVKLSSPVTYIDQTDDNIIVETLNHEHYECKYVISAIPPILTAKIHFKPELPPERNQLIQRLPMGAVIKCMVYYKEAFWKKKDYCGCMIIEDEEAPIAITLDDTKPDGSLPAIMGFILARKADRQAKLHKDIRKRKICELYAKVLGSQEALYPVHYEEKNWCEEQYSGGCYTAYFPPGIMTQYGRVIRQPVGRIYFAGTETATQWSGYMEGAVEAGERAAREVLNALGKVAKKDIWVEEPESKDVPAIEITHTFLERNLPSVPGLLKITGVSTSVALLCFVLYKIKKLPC
# Procedure: The MAO-A activities in vitro were measured using Rat liver mitochondrial membranes as the source of the enzyme, according to modified method of S. Otsuka & Y. Kobayashi. A Radioisotopic Assay for Monoamine Oxidase Determinations in Human Plasma. Biochem. Pharmacol. 13: 995-1006 (1964)
# Rat liver mitochondrial membranes is preincubated with drug or vehicle, and subtype selective blocker (300 nM deprenyl to block the B type of MAO) for 60 minutes at 37°C in 100 mM KPO4 (pH 7.2). [^14C] Serotonin ([…]) is then added and incubated for 10 minutes. The reaction is stopped by the addition of 0.5 ml of 2M citric acid. Radioactive product is extracted into a toluene/ethyl acetate fluor and compared to control values by scintillation spectrophotometry in order to ascertain any interactions of test compounds with MAO-A.
# [4] = test system: mice; assay: Behavior Despair (Forced Swimming) test, mice dosed ip; assay type: in vivo; conditions: reduction in immobility time versus vehicle; dose 30 mg/kg (ip); one hour after dosing; 15-minute test period
# Procedure: as §1
# Mice were dosed intraperitoneally (ip) with either test compound or vehicle. One hour later each animal was placed in a 1500 mL glass beaker containing water at room temperature. Mice were kept in the water for a period of 15 minutes and the duration of immobility observed within the 15-minute test period was recorded. A mouse was judged to be immobile if it floated motionlessly in the water making only those movements necessary to keep its head above the water. For calculation of percent (%) reduction in immobility time, the difference in immobility time for control vehicle versus the drug is divided by the immobility time of the control vehicle and multiplied by 100.
smiles,measurement,setting,value
"NC(=O)OCC1Cc2ccccc2CN1 (racemic) [Example 5, (RS)-3-Carbamoyloxymethyl-1,2,3,4-tetrahydroisoquinoline]",% Response Increase,[1]; dose 3 mg/kg,144%
"NC(=O)OC[C@@H]1Cc2ccccc2CN1 [Example 3, (S)-3-Carbamoyloxymethyl-1,2,3,4-tetrahydroisoquinoline]",% Reduction,[2],83%
same,% Response Increase,[1]; dose 1 mg/kg,238%
same,inhibition at 10 µM,[3],97.7%
"NC(=O)OC[C@H]1Cc2ccccc2CN1 [Example 4, (R)-3-Carbamoyloxymethyl-1,2,3,4-tetrahydroisoquinoline]",% Response Increase,[1]; dose 15 mg/kg,258%
same,inhibition at 10 µM,[3],63.9%
"CN1Cc2ccccc2C[C@H]1COC(N)=O [Example 8, (S)-3-Carbamoyloxymethyl-N-methyl-1,2,3,4-tetrahydroisoquinoline]",% Response Increase,[1]; dose 1 mg/kg,77%
"NC(=S)OCC1Cc2ccccc2CN1 (centres unmarked) [Example 14, 3-Thiocarbamoyloxymethyl-1,2,3,4-tetrahydroisoquinoline]",% Response Increase,[1]; dose 8 mg/kg,42%
"CNC(=S)OC[C@@H]1Cc2ccccc2CN1 [Example 16, (S)-3-(N-Methylthiocarbamoyloxymethyl)-1,2,3,4-tetrahydroisoquinoline]",% Reduction,[4],56%
"CNC(=S)OC[C@@H]1Cc2ccccc2CN1C(=O)Nc1ccccc1 [Example 17, (S)-3-(N-Methyl-thiocarbamoyloxymethyl)-N-(anilinocarbonyl)-1,2,3,4-tetrahydroisoquinoline]",% Reduction,[4],46%
"CNC(=S)OC[C@@H]1Cc2ccccc2CN1C [Example 18, (S)-3-(N-Methylthiocarbamoyloxymethyl)-N-methyl-1,2,3,4-tetrahydroisoquinoline]",% Reduction,[4],33%
